Tests used:
[1] = system: LGR5; assay: LGR5 expression in treated CRC cell lines by flow cytometry; format: cell-based; conditions: 1 um, 72 hrs
Method: A panel of CRC cell lines including DLD1, HCT116, LS174t, LoVo, SW48, SW480 and SW620 were treated with a PI3K/mTOR dual inhibitor (NVP) or 2 different cytotoxic agents including SN38 (active metabolite of Irinotecan) or 5FU (5 fluorouracil). Cells were treated with the above agents at 1 um and were harvested after 72 hrs. Cells were then stained with anti-LGR5 Mab conjugated to Alexa Fluor647 and the data were analyzed by flow cytometry using a FACScalibur.

[2] = system: LGR5; assay: LGR5 expression in treated pancreatic cell lines by flow cytometry; format: cell-based
Method: In addition to CRC cell lines to further expand the above findings, expression of LGR5 was investigated in a series of pancreatic cell lines treated with relevant standard of care including nab-paclitaxel, gemcitabine and taxol and also small molecule inhibitors targeting most relevant pathways in pancreatic cancer such as inhibitors of PI3K, MEK and GSK3β. The pancreatic cell lines that were tested include: AsPc1, HPAFII, PANC1, BxPC3, CFPAC, PANC10.05, Capan2 and SW1990.

[3] = system: AsPC-1 cancer stem cells; assay: limiting dilution experiment, AsPC-1 tumors; format: in vivo, mice; conditions: day 40 post treatment, gemcitabine single agent
[4] = system: PANC1 cancer stem cells; assay: limiting dilution re-implant of treated PANC1 tumors; format: in vivo, mice; conditions: gemcitabine alone
From the text: Tumors cells from these treatment groups were harvested, dissociated, pooled and re-implanted in a limiting dilution assay (500, 1500, 4500 or 13500 cells/animal) into a new cohort of CB.17 SCID mice and allowed to grow with no treatment.

O=c1[nH]cc(F)c(=O)[nH]1 [5FU, 5 fluorouracil]
LGR5 expression by flow cytometry ([1]; any of the CRC lines (DLD1, HCT116, LS174t, LoVo, SW48, SW480, SW620)): did not induce LGR5 expression

CCc1c2c(nc3ccc(O)cc13)-c1cc3c(c(=O)n1C2)COC(=O)[C@]3(O)CC [SN38]
LGR5 expression by flow cytometry ([1]; HCT116, LS174t, SW48, SW480 and especially SW620 cells): promoted LGR5 expression

Nc1ccn([C@@H]2O[C@H](CO)[C@@H](O)C2(F)F)c(=O)n1 [gemcitabine, reference compound]
LGR5 expression by flow cytometry ([2]; PANC1): upregulates LGR5 | percentage of tumor bearing mice ([3]; AsPC-1, 4500 cells): 40% | percentage of tumor bearing mice ([3]; AsPC-1, 13500 cells): 80% | frequency of engraftment ([4]; PANC1, 4500 cells): 40% | frequency of engraftment ([4]; PANC1, 13500 cells): 100%

CC(=O)O[C@H]1C(=O)[C@@]2(C)[C@H]([C@H](OC(=O)c3ccccc3)[C@]3(O)C[C@H](OC(=O)[C@H](O)[C@@H](NC(=O)c4ccccc4)c4ccccc4)C(C)=C1C3(C)C)[C@]1(OC(C)=O)CO[C@@H]1C[C@@H]2O [taxol]
LGR5 expression by flow cytometry ([2]; HPAFII): increased LGR5 expression
